From patent US20050019438A1, “Hop extracts and use thereof in the production of a medicament having estrogenic properties” (priority 2001, published 2005)

System: Ishikawa cell line (Var. I) of human endometrial adenocarcinoma
Assay: Ishikawa cell alkaline phosphatase assay of estrogenic activity
Type: cell-based
Description: The in vitro assay used was developed by Littlefield in 1990 (Endocrinology 1990, 127, p. 2757-2762).
The variant of the cell line used is sensitive to estrogens, to which it responds not through a proliferative activity, but through an activity which stimulates an enzyme, alkaline phosphatase. This assay provides, in a sensitive and specific manner, information on the estrogenic activity since, among steroids, only the estrogens respond to this assay and succeed in stimulating the enzyme activity. The estrogenic activity can also be triggered by non-steroidal substances having a “estrogen-like” effect, such as phytoestrogens. The estrogenic responses obtained below are blocked by the reference anti-estrogen brought into contact, which indicates an estrogen receptor-mediated activity.
The model is an Ishikawa cell line (Var. I) of human endometrial adenocarcinoma (established by Nishida: Acta Obstet Gynaec Jap 1985, 37: 1103-1111).
Specifically, alkaline phosphatase hydrolyzes p-nitrophenol phosphate to p-nitrophenol, which gives a colored reaction.
The assay consists in measuring the absorbance at 405 nm after incubation for 72 h.
Two controls were used: • positive control=17β-estradiol, • negative control=antiestrogen ICI182, 780 from Zeneca. […]

## C[C@]12CC[C@@H]3c4ccc(O)cc4CC[C@H]3[C@@H]1CC[C@@H]2O [17β-Estradiol, 17β-estradiol]
Alkaline phosphatase activation in Ishikawa cells, absorbance at 405 nm after 72 h
  estrogenic activity / response (in words): expected dose-effect relationship

## C[C@]12CC[C@@H]3c4ccc(O)cc4C[C@@H](CCCCCCCCC[S+]([O-])CCCC(F)(F)C(F)(F)F)[C@H]3[C@@H]1CC[C@@H]2O (stereo partly drawn) [reference anti-estrogen]
Reference anti-estrogen brought into contact, indicates estrogen receptor-mediated activity
  blocking of the estrogenic responses by the anti-estrogen: blocked
